Source: patent US20030050193A1, “Herbicide combinations comprising specific sulfonylureas” (priority 2001, published 2003)

Experiments:
Type in all cases: in vivo
Veronica hederifolia = test: Herbicidal action (greenhouse trials), post-emergence, visual scoring; conditions: Example 2; application rate g of al/ha: amidosulfuron 8, cinidon-ethyl 13, A + B 8 + 13; scored approx. 4-6 weeks after application; 100% = all plants dead
Description: (§1) Herbicidal Action (Greenhouse Trials)
(§2) The seeds or rhizome pieces of typical harmful plants were placed into sandy loam soil in round pots, size 13, covered with soil and grown in a greenhouse under good growth conditions. After the harmful plants had emerged, they were treated, as a rule at the 2- to 3-leaf stage, with various dosages of the compositions according to the invention at a water application rate of 100 to 400 l/ha (converted),
(§3) After the treatment (approx. 4-6 weeks after application), the herbidical activity of the active compounds or active compound mixtures was scored visually by comparing the treated plots with the untreated controls. Damage and development of all above-ground parts of the plants was recorded. Scoring was done on a percentage scale (100% action=all plants dead; 50% action=50% of the plants and green plant parts dead; 0% action=no discernible action),
(§4) The results are listed in the tables below, where the activity measured for the independent use of the active compounds (A) and (B) is stated in brackets, […]

Galium aparine = test: as above; conditions: Example 1; application rate g of ai/ha: amidosulfuron 15, florasulam 4, A + B 15 + 4; scored approx. 4-6 weeks after application; 100% = all plants dead
Description: as §1, §2, §3, §4

Wheat = test: Crop damage in greenhouse trials, visual scoring; conditions: scored approx. 4-6 weeks after application
Description: as §1, §2, §3, §4

[1] = Example 1, application rate g of ai/ha: amidosulfuron 15, florasulam 4, A + B 15 + 4
[2] = Example 2, application rate g of al/ha: amidosulfuron 8, cinidon-ethyl 13, A + B 8 + 13

SMILES	Veronica hederifolia % activity (Veronica hederifolia)	Galium aparine % activity (Galium aparine)	Wheat % damage (Wheat; [1])	Wheat % damage (Wheat; [2])
COc1cc(OC)nc(NC(=O)NS(=O)(=O)N(C)S(C)(=O)=O)n1 [Amidosulfuron, 1-(4,6-dimethoxypyrimidin-2-yl)-3-mesyl-(methyl)-sulfamoylurea]	0%	35%	0%	0
CCOC(=O)/C(Cl)=C/c1cc(N2C(=O)C3=C(CCCC3)C2=O)ccc1Cl [Cinidon-ethyl, ethyl (Z)-2-chloro-3-[2-chloro-5-(1,2-cyclohex-1-enedicarboximido)phenyl]acrylate]	15%			0
COc1ncc(F)c2nc(S(=O)(=O)Nc3c(F)cccc3F)nn12 [Florasulam, 2′,6′,8′-trifluoro-5-methoxy[1,2,4]triazolo[1,5-c]pyrimidine-2-sulfanilide]		45%	1%	
